Measurements from patent publication US5019574A, “3,4-diaminoquinoline and 3,4-diamino-5,6,7,8-tetrahydroquinoline compounds useful for improving psychoneural function” (Chugai Seiyaku Kabushiki Kaisha, priority 1988, dated 1991).
Like-named read-outs stand apart in the source and are kept apart here.

Assays:
male rats (F344) = assay type: in vivo; settings: p<0.05, n=6, AF64AP-treated rats
MAO-A = target: T1, MAO-A (Rattus norvegicus, UniProt P21396); experiment: Inhibition of monoamine oxidase: MAO-A; assay type: biochemical, rats (F344/Crj); settings: 10 μM; 12 μM [14C]-serotonin substrate; None = 100; read-out: Inhibition rate (%) MAO-A
T1 construct: A crude synaptosomal fraction (P2) was obtained from the brain of rats (F344/Crj); from tissue; host or cells: rat (F344/Crj) brain, crude synaptosomal fraction (P2), homogenized
T1 sequence (P21396 1-526): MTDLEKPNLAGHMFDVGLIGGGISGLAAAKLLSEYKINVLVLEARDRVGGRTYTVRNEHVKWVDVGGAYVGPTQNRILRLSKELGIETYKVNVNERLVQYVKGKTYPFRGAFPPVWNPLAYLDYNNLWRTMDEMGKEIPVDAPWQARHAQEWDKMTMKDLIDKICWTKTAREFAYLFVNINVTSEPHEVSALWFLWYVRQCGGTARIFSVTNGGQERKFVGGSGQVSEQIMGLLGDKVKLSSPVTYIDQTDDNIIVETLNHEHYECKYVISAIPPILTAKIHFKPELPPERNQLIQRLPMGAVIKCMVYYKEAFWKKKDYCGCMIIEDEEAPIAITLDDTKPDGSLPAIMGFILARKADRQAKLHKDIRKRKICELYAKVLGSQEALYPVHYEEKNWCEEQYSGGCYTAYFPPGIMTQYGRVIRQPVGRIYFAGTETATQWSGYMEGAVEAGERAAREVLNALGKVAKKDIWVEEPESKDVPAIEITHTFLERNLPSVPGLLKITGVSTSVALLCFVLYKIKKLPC
Procedure: (§1) Inhibition of Monoamine Oxidase (MAO):
(§2) A crude synaptosomal fraction (P2) was obtained from the brain of rats (F344/Crj) in the usual manner and homogenized to perform MAO activity measurements. The substrate was 12 μM [^14 C]-serotonin in the case of MAO-A activity measurements, and 5 μM [^14 C]-2-phenethylamine in the case of MAO-B activity measurements. In accordance with the method of R. J. Wurtman and J. Axelrod described in Biochemical Pharmacol. 12, […], 1963, the homogenates were incubated in 100 mM phosphate buffer (pH 7.4) at 37° C. for 20 minutes and the effect of adding selected compounds at a concentration of 10 μM was evaluated.

[1] = tested on: uptake of dopamine into synaptosomes; experiment: Inhibition of catecholamine uptake: 3H-dopamine uptake into synaptosomes; assay type: biochemical, rats (F344/Crj); settings: 1 μM; dopamine uptake in the absence of drugs taken as 100
Procedure: (§3) A crude synaptosomal fraction (P2) was obtained from the brain of rats (F344/Crj) in the usual manner. In accordance with the method of S. H. Snyder and J. T. Coyle described in Journal of Pharmacology and Experimental Therapeutics, 165(1), 78-86, 1969, the fraction P2 was incubated in a Krebs-Henseleit bicarbonate buffer solution at 37° C. for 10 minutes together with 50 nM ^3 H-norepinephrine (0.25 jμCi). Thereafter, the uptake of norepinephrine into the synaptosomes was measured by the filtration method. Selected compounds were added at a concentration of 1 μM to the solution being incubated and their effect on norepinephrine uptake was examined. The control drug was tetrahydroaminoacridine (THA).
(§4) Inhibition of Catecholamine Uptake:
The uptake of dopamine into synaptosomes was measured by repeating the procedure of Test Example 2 except that 50 nM ^3 H-norepinephrine (0.25 μCi) was replaced by 15 nM ^3 H-dopamine (0.68 μCi). The control drug was tetrahydroaminoacridine (THA). The result is shown in Table 5 in terms of percentage, with dopamine uptake in the absence of drugs being taken as 100.

male ICR mice = experiment: Improvement of memory and learning ability tested by passive avoidance response; assay type: in vivo; settings: dose 10 (μg/kg i.p.); retention trial 24 hours after acquisition trial
Procedure: Improvement of memory and Learning Ability Tested by Passive Avoidance Response:
Four groups of male ICR mice (10-14 weeks old). each consisting of 10 animals, were used in the experiment. Except for one control group, the mice were administered with selected compounds of the present invention. The experimental chamber consisted of a light and a dark compartment and an electric current shock source was connected to the floor grid in the dark compartment.
The experimental sessions consisted of acclimation. acquisition, and retention trials and were performed for […], one trial per day. In the acclimation trial, animals were placed in the light compartment of the experimental chamber and left there for 5 minutes to acclimate them to the apparatus. In the acquisition trial which was conducted on the 2nd day, the animals were placed in the light compartment and when they entered the dark compartment, they were confined and given an a.c. electric shock (1 mA) through the floor grid for 10 seconds. In the retention trial which was conducted 24 hours after the acquisition trial, the animals were placed in the light compartment of the chamber and the step-through latency (i.e., the time required for the animals to enter the dark compartment) was measured. A physiological saline solution was administered at the acclimation trial to all of the animals. At the acquisition trial, selected compounds were administered in amounts of 10 μg/kg of body weight (1 ml/100 g). The control group was administered the same amount of physiological saline solution 60 minutes before the start of the trial. All administrations were intraperitoneal.

[2] = tested on: norepinephrine uptake into the synaptosomes; experiment: Inhibition of catecholamine uptake: 3H-norepinephrine uptake into synaptosomes; assay type: biochemical, rats (F344/Crj); settings: 1 μM; norepinephrine uptake in the absence of drug compounds taken as 100
Procedure: as §4, §3
The results are shown in Table 3 in terms of percentage, with norepinephrine uptake in the absence of drug compounds being taken as 100.

acetylcholinesterase = target: T2, acetylcholinesterase (Electrophorus electricus, UniProt O42275); experiment: Inhibition of acetylcholinesterase activity; assay type: biochemical; settings: activity without drug compound taken as 100, average of three measurements, read-out: Inhibition rate (%)
T2 construct: purchased Sigma C-2888
T2 sequence (O42275 24-633): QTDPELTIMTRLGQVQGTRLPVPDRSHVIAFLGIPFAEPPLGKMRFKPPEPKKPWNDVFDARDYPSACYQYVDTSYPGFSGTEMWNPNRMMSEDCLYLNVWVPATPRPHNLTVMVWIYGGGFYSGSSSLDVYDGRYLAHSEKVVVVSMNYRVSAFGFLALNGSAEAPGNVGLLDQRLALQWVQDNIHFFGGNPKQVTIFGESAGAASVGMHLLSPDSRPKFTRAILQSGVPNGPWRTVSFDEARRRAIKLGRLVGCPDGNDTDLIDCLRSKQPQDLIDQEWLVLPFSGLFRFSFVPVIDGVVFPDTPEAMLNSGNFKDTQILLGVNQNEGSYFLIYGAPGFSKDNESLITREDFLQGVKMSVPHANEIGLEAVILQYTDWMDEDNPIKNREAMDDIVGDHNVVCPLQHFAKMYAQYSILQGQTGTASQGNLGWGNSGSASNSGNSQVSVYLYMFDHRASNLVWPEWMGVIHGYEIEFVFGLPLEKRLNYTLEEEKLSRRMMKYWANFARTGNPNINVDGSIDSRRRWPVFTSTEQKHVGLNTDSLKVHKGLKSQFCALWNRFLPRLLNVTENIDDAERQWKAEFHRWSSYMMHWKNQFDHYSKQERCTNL
Procedure: Inhibition of Acetylcholinesterase Activity:
Acetylcholinesterase activity was assayed in accordance with the method of S. H. Sterri and F. Fonnum described in European Journal of Biochemistry, 91: 215-222, 1978. The method consisted of incubating 0.5 μU of authentic acetylcholinesterase ([…]) (Sigma, No. C-2888) at 30° C. for 15 minutes in a 20 mM sodium phosphate buffer (pH 7.4). with 1.3 mM [1^-14 C] acetylcholine (0.025 μCi) being used as a substrate. Selected compounds of the general formula (I) were added at a concentration of 1 μM to the reaction solution and the resulting effect on enzymatic activity was evaluated.
The result was obtained as the average of three measurements and shown in Table 2 in terms of percentage, with the activity for the case where no drum compound was added being taken as 100.

MAO-B = target: T3, MAO-B (Rattus norvegicus, UniProt P19643); experiment: Inhibition of monoamine oxidase: MAO-B; assay type: biochemical, rats (F344/Crj); settings: 10 μM; 5 μM [14C]-2-phenethylamine substrate; None = 100; read-out: Inhibition rate (%) MAO-B
T3 construct: A crude synaptosomal fraction (P2) was obtained from the brain of rats (F344/Crj); from tissue; host or cells: rat (F344/Crj) brain, crude synaptosomal fraction (P2), homogenized
T3 sequence (P19643 1-520): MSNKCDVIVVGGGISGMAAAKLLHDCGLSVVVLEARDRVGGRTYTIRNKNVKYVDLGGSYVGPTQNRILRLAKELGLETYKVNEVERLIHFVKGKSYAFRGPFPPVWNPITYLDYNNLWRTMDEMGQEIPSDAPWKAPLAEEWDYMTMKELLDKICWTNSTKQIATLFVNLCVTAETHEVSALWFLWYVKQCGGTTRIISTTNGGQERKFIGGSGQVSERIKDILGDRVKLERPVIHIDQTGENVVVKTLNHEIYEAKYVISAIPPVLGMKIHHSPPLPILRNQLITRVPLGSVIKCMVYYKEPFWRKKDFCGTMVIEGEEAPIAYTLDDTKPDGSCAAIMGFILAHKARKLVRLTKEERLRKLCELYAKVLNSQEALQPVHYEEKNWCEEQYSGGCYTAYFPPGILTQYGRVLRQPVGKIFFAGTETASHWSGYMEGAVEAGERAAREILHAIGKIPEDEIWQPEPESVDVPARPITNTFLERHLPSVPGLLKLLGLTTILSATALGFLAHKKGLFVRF
Procedure: as §1, §2

Row | Compound | number of correct responses vs vehicle control (male rats (F344); 10 mg/kg orally) | number of correct responses vs vehicle control (male rats (F344); 30 mg/kg orally) | inhibition at 10 µM (MAO-A) [%] | Inhibition rate (%) [1] [%] | Step through latency (male ICR mice) [s] | Inhibition rate (%) [2] [%] | inhibition at 1 µM (acetylcholinesterase) [%] | inhibition at 10 µM (MAO-B) [%]
1 | Nc1c(N2CCCCC2)c(C2CCCCC2=O)nc2ccccc12 (centres unmarked) [Compound 7, 4-amino-3-piperidino-2-(2'-oxocyclohexyl)quinoline] | statistically significant increase in the number of correct responses | statistically significant increase in the number of correct responses | 58.7 | 86.4 | 104.1 ± 28.5 | 79.0 | 38.1 | 87.5
2 | Nc1c2c(nc(C3CCCCC3O)c1N1CCCCC1)CCCC2 (centres unmarked) [Compound 9] | – | – | 59.4 | 78.6 | 54.4 ± 7.2 | 69.4 | 38.8 | 89.4
